Test results as given in PMC5218480 (PLoS ONE, 2017).

System: MV-4-11 cells
Assay: Gene expression microarray analysis (Affymetrix PrimeView) and GSEA
Format: cell-based, human
Design: RFU PODN (11730768_x_at) / Fold change /veh PODN (11730768_x_at) / RFU LINC00158 (11744669_a_at) / Fold change /veh LINC00158 (11744669_a_at) / RFU DUSP10 (11751237_a_at) / Fold change /veh DUSP10 (11751237_a_at) / RFU ID3 (11757404_x_at) / Fold change /veh ID3 (11757404_x_at) / RFU PLEKHG5 (11737974_s_at) / Fold change /veh PLEKHG5 (11737974_s_at) / RFU LRRC4B (11730491_at) / Fold change /veh LRRC4B (11730491_at) / RFU GIMAP4 (11747438_a_at) / Fold change /veh GIMAP4 (11747438_a_at) / RFU KRT8 (11758183_x_at) / Fold change /veh KRT8 (11758183_x_at) / RFU CNN1 (11734310_a_at) / Fold change /veh CNN1 (11734310_a_at) / RFU VPS37D (11726825_at) / Fold change /veh VPS37D (11726825_at) / RFU C10orf10 (11716522_x_at) / Fold change /veh C10orf10 (11716522_x_at) / RFU KIR2DL2 /// KIR2DL4 /// KIR2DL5A /// KIR2DL5B /// KIR2DS1 /// KIR2DS2 /// KIR2DS3 /// KIR2DS4 /// KIR3DL3 /// KIR3DL3 /// KIR3DS1 (11738374_at) / Fold change /veh KIR2DL2 /// KIR2DL4 /// KIR2DL5A /// KIR2DL5B /// KIR2DS1 /// KIR2DS2 /// KIR2DS3 /// KIR2DS4 /// KIR3DL3 /// KIR3DL3 /// KIR3DS1 (11738374_at) / RFU C1QL1 (11718748_at) / Fold change /veh C1QL1 (11718748_at) / RFU TMPRSS4 (11747572_a_at) / Fold change /veh TMPRSS4 (11747572_a_at) / RFU HAMP (11756126_x_at) / Fold change /veh HAMP (11756126_x_at) / RFU RNFT2 (11725882_a_at) / Fold change /veh RNFT2 (11725882_a_at) / RFU NR4A2 (11747474_a_at) / Fold change /veh NR4A2 (11747474_a_at) / RFU ABCC12 (11746883_a_at) / Fold change /veh ABCC12 (11746883_a_at) / RFU TMEM136 (11760407_x_at) / Fold change /veh TMEM136 (11760407_x_at) / RFU CLDN22 /// WWC2 (11732394_at) / Fold change /veh CLDN22 /// WWC2 (11732394_at) / RFU HLA-DPB1 (11760878_x_at) / Fold change /veh HLA-DPB1 (11760878_x_at) / RFU SPINT1 (11716480_a_at) / Fold change /veh SPINT1 (11716480_a_at) / RFU GAP43 (11754022_s_at) / Fold change /veh GAP43 (11754022_s_at) / RFU A4GNT (11735810_at) / Fold change /veh A4GNT (11735810_at) / RFU PRB3 (11715151_x_at) / Fold change /veh PRB3 (11715151_x_at) / RFU TUBB4B (11761932_at) / Fold change /veh TUBB4B (11761932_at) / RFU CAPN14 (11732068_a_at) / Fold change /veh CAPN14 (11732068_a_at) / RFU TMCC2 (11721928_a_at) / Fold change /veh TMCC2 (11721928_a_at) / RFU IRGQ (11745062_a_at) / Fold change /veh IRGQ (11745062_a_at) / RFU FAM174B (11720279_a_at) / Fold change /veh FAM174B (11720279_a_at) / RFU TMPRSS4 (11748680_a_at) / Fold change /veh TMPRSS4 (11748680_a_at) / RFU FAM212B (11763350_a_at) / Fold change /veh FAM212B (11763350_a_at) / RFU PLEKHG5 (11743358_a_at) / Fold change /veh PLEKHG5 (11743358_a_at) / RFU ZSCAN30 (11745921_a_at) / Fold change /veh ZSCAN30 (11745921_a_at) / RFU CMKLR1 (11741424_a_at) / Fold change /veh CMKLR1 (11741424_a_at) / RFU LOC101060620 /// MAPK8IP1 (11723275_at) / Fold change /veh LOC101060620 /// MAPK8IP1 (11723275_at) / RFU SPTSSB (11747773_x_at) / Fold change /veh SPTSSB (11747773_x_at) / RFU PRSS12 (11739890_at) / Fold change /veh PRSS12 (11739890_at) / RFU BIN1 (11741810_x_at) / Fold change /veh BIN1 (11741810_x_at) / RFU WNT11 (11732464_a_at) / Fold change /veh WNT11 (11732464_a_at) / RFU C10orf10 (11716521_a_at) / Fold change /veh C10orf10 (11716521_a_at) / RFU C5orf56 (11738089_at) / Fold change /veh C5orf56 (11738089_at) / RFU CYB561 (11721691_x_at) / Fold change /veh CYB561 (11721691_x_at) / RFU ANKRD19P (11752326_a_at) / Fold change /veh ANKRD19P (11752326_a_at) / RFU OR2T12 /// OR2T33 /// OR2T8 (11738714_s_at) / Fold change /veh OR2T12 /// OR2T33 /// OR2T8 (11738714_s_at) / RFU VCAN (11748164_a_at) / Fold change /veh VCAN (11748164_a_at) / RFU JSRP1 (11732532_at) / Fold change /veh JSRP1 (11732532_at) / RFU KRTAP10-11 (11738290_x_at) / Fold change /veh KRTAP10-11 (11738290_x_at) / RFU MYO3A (11730013_a_at) / Fold change /veh MYO3A (11730013_a_at) / RFU EBF3 (11725865_a_at) / Fold change /veh EBF3 (11725865_a_at) / RFU CAMK2N1 (11719241_x_at) / Fold change /veh CAMK2N1 (11719241_x_at) / RFU C5orf56 (11738088_a_at) / Fold change /veh C5orf56 (11738088_a_at) / RFU OLFML3 (11715873_a_at) / Fold change /veh OLFML3 (11715873_a_at) / RFU LOC100653217 /// NTM (11731650_a_at) / Fold change /veh LOC100653217 /// NTM (11731650_a_at) / RFU MAPK11 (11762145_a_at) / Fold change /veh MAPK11 (11762145_a_at) / RFU FIZ1 (11724087_x_at) / Fold change /veh FIZ1 (11724087_x_at) / RFU OASL (11726364_x_at) / Fold change /veh OASL (11726364_x_at) / RFU SOX15 (11748057_x_at) / Fold change /veh SOX15 (11748057_x_at) / RFU CD79A (11719716_a_at) / Fold change /veh CD79A (11719716_a_at) / RFU HIST1H1D (11736915_at) / Fold change /veh HIST1H1D (11736915_at) / RFU CASKIN2 (11723855_a_at) / Fold change /veh CASKIN2 (11723855_a_at) / RFU LOC730098 (11760151_x_at) / Fold change /veh LOC730098 (11760151_x_at) / RFU OR4N2 (11742367_at) / Fold change /veh OR4N2 (11742367_at) / RFU PRRT2 (11749266_a_at) / Fold change /veh PRRT2 (11749266_a_at) / RFU SNX32 (11753110_a_at) / Fold change /veh SNX32 (11753110_a_at) / RFU CDHR5 (11726645_a_at) / Fold change /veh CDHR5 (11726645_a_at) / RFU RCAN1 (11760418_a_at) / Fold change /veh RCAN1 (11760418_a_at) / RFU FAM167A (11723789_a_at) / Fold change /veh FAM167A (11723789_a_at) / RFU FAM26E (11764081_at) / Fold change /veh FAM26E (11764081_at) / RFU ISYNA1 (11749810_s_at) / Fold change /veh ISYNA1 (11749810_s_at) / RFU ACY1 (11761880_at) / Fold change /veh ACY1 (11761880_at) / RFU 11764098_at / Fold change /veh 11764098_at / RFU SAMD14 (11745864_x_at) / Fold change /veh SAMD14 (11745864_x_at) / RFU NPB (11741838_a_at) / Fold change /veh NPB (11741838_a_at) / RFU TMPRSS6 (11731388_a_at) / Fold change /veh TMPRSS6 (11731388_a_at) / RFU KRTAP10-2 (11738614_at) / Fold change /veh KRTAP10-2 (11738614_at) / RFU ARHGAP8 /// PRR5-ARHGAP8 (11727945_x_at) / Fold change /veh ARHGAP8 /// PRR5-ARHGAP8 (11727945_x_at) / RFU KRTAP5-7 /// NADSYN1 (11734609_at) / Fold change /veh KRTAP5-7 /// NADSYN1 (11734609_at) / RFU RASL12 (11751679_a_at) / Fold change /veh RASL12 (11751679_a_at) / RFU CDKN2B (11736163_a_at) / Fold change /veh CDKN2B (11736163_a_at) / RFU PRF1 (11729649_at) / Fold change /veh PRF1 (11729649_at) / RFU, ZNF638 /// ZNF638-IT1 / Fold change vs veh, ZNF638 /// ZNF638-IT1 / RFU, PANK3 / Fold change vs veh, PANK3 / RFU, SH3YL1 / Fold change vs veh, SH3YL1 / RFU, ZEB2 / Fold change vs veh, ZEB2 / RFU, NRIP1 / Fold change vs veh, NRIP1 / RFU, PTTG1IP / Fold change vs veh, PTTG1IP / RFU, CAPN2 / Fold change vs veh, CAPN2 / RFU, MED14 / Fold change vs veh, MED14 / RFU, SNORA58 / Fold change vs veh, SNORA58 / RFU, C1orf63 / Fold change vs veh, C1orf63 / RFU, LRRFIP1 / Fold change vs veh, LRRFIP1 / RFU, NDUFAF7 / Fold change vs veh, NDUFAF7 / RFU, SLC12A2 / Fold change vs veh, SLC12A2 / RFU, IBTK / Fold change vs veh, IBTK / RFU, ESF1 / Fold change vs veh, ESF1 / Fold change vs veh, TMEM50B / RFU, TAOK1 / Fold change vs veh, TAOK1 / RFU, ACBD3 / Fold change vs veh, ACBD3 / RFU, TMA16 / Fold change vs veh, TMA16 / RFU, RWDD3 / Fold change vs veh, RWDD3 / RFU, BCAT1 / Fold change vs veh, BCAT1 / RFU, EDEM3 / Fold change vs veh, EDEM3 / RFU, TMEM33 / Fold change vs veh, TMEM33 / RFU, WDR75 / Fold change vs veh, WDR75 / RFU, AHCTF1 / Fold change vs veh, AHCTF1 / RFU, TFRC / Fold change vs veh, TFRC / RFU, ZDHHC17 / Fold change vs veh, ZDHHC17 / RFU, NOM1 / Fold change vs veh, NOM1 / RFU, ARL8B / Fold change vs veh, ARL8B / RFU, ZBTB11 / Fold change vs veh, ZBTB11 / RFU, TAMM41 / Fold change vs veh, TAMM41 / RFU, KIAA1704 /// LOC100996395 / Fold change vs veh, KIAA1704 /// LOC100996395 / RFU, ING1 / Fold change vs veh, ING1 / RFU, TRMT61B / Fold change vs veh, TRMT61B / RFU, FUBP3 / Fold change vs veh, FUBP3 / RFU, TP53 / Fold change vs veh, TP53 / RFU, TNKS2 / Fold change vs veh, TNKS2 / RFU, ZFP14 / Fold change vs veh, ZFP14 / RFU, ACTR2 / Fold change vs veh, ACTR2 / RFU, PPP3R1 / Fold change vs veh, PPP3R1 / RFU, PIK3R1 / Fold change vs veh, PIK3R1 / RFU, HNRNPA1 / Fold change vs veh, HNRNPA1 / RFU, RNF170 / Fold change vs veh, RNF170 / RFU, ZNF28 / Fold change vs veh, ZNF28 / RFU, RNGTT / Fold change vs veh, RNGTT / RFU, OGT / Fold change vs veh, OGT / RFU, BRD1 / Fold change vs veh, BRD1 / RFU, MARS / Fold change vs veh, MARS / RFU, ZNF655 / Fold change vs veh, ZNF655 / RFU, FAHD1 / Fold change vs veh, FAHD1 / RFU, BDP1 / Fold change vs veh, BDP1 / RFU, LRRCC1 / Fold change vs veh, LRRCC1 / RFU, ARID1A / Fold change vs veh, ARID1A / RFU, ZNF146 / Fold change vs veh, ZNF146 / RFU, ZNF330 / Fold change vs veh, ZNF330 / RFU, GPN3 / Fold change vs veh, GPN3 / RFU, C9orf123 / Fold change vs veh, C9orf123 / RFU, N4BP2L2 / Fold change vs veh, N4BP2L2 / RFU, ARFIP1 / Fold change vs veh, ARFIP1 / RFU, FAM179B / Fold change vs veh, FAM179B / RFU, BCL10 / Fold change vs veh, BCL10 / RFU, UHRF1BP1L / Fold change vs veh, UHRF1BP1L / RFU, BET1 / Fold change vs veh, BET1 / RFU, CNOT2 / Fold change vs veh, CNOT2 / RFU, ZNF268 / Fold change vs veh, ZNF268 / Fold change vs veh, ZNF507 / RFU, DGCR2 / Fold change vs veh, DGCR2 / RFU, WDSUB1 / Fold change vs veh, WDSUB1 / Fold change vs veh, HSP90B1 /// MIR3652 / RFU, ADSS / Fold change vs veh, ADSS / RFU, GK / Fold change vs veh, GK / RFU, ZNF148 / Fold change vs veh, ZNF148 / RFU, TAF9 / Fold change vs veh, TAF9 / RFU, SLC1A5 / Fold change vs veh, SLC1A5 / RFU, SLMO2 / Fold change vs veh, SLMO2 / RFU, ABCC4 / Fold change vs veh, ABCC4 / RFU, LOC101060439 /// RAP1B / Fold change vs veh, LOC101060439 /// RAP1B / RFU, RFX7 / Fold change vs veh, RFX7 / RFU, GTPBP10 / Fold change vs veh, GTPBP10 / RFU, CNEP1R1 / Fold change vs veh, CNEP1R1 / RFU, BIVM-ERCC5 /// ERCC5 / Fold change vs veh, BIVM-ERCC5 /// ERCC5 / RFU, ILF3 / Fold change vs veh, ILF3 / RFU 11762660_at / Fold change /veh 11762660_at / RFU VCAN (11757783_s_at) / Fold change /veh VCAN (11757783_s_at) / RFU DDX43 (11728927_at) / Fold change /veh DDX43 (11728927_at) / RFU KRT8 (11758188_x_at) / Fold change /veh KRT8 (11758188_x_at) / RFU NKD1 (11759106_at) / Fold change /veh NKD1 (11759106_at) / RFU SRD5A1 (11742802_a_at) / Fold change /veh SRD5A1 (11742802_a_at) / RFU TPSAB1 /// TPSB2 (11721975_s_at) / Fold change /veh TPSAB1 /// TPSB2 (11721975_s_at) / RFU GSTM3 (11746129_a_at) / Fold change /veh GSTM3 (11746129_a_at) / RFU IL23R (11737362_x_at) / Fold change /veh IL23R (11737362_x_at) / RFU TMEM51 (11727254_a_at) / Fold change /veh TMEM51 (11727254_a_at) / RFU PIWIL2 (11732686_x_at) / Fold change /veh PIWIL2 (11732686_x_at) / RFU ORM1 (11744905_x_at) / Fold change /veh ORM1 (11744905_x_at) / RFU CCDC152 (11743942_at) / Fold change /veh CCDC152 (11743942_at) / RFU ECM1 (11717891_a_at) / Fold change /veh ECM1 (11717891_a_at) / RFU IL23R (11748794_a_at) / Fold change /veh IL23R (11748794_a_at) / RFU TNFAIP8L3 (11732012_x_at) / Fold change /veh TNFAIP8L3 (11732012_x_at) / RFU MBOAT4 (11741988_at) / Fold change /veh MBOAT4 (11741988_at) / RFU 11764193_at / Fold change /veh 11764193_at / RFU TMEM53 (11763286_at) / Fold change /veh TMEM53 (11763286_at) / RFU MAGEB2 (11727129_at) / Fold change /veh MAGEB2 (11727129_at) / RFU TMEM200A (11744735_a_at) / Fold change /veh TMEM200A (11744735_a_at) / RFU CCDC152 (11751479_a_at) / Fold change /veh CCDC152 (11751479_a_at) / RFU FAM211A (11726209_a_at) / Fold change /veh FAM211A (11726209_a_at) / RFU RGS16 (11746705_a_at) / Fold change /veh RGS16 (11746705_a_at) / RFU VCAN (11755009_s_at) / Fold change /veh VCAN (11755009_s_at) / RFU RHOB (11743442_s_at) / Fold change /veh RHOB (11743442_s_at) / RFU RGS16 (11720943_a_at) / Fold change /veh RGS16 (11720943_a_at) / RFU RGS16 (11720944_at) / Fold change /veh RGS16 (11720944_at) / RFU, VPS4B / Fold change vs veh, VPS4B / RFU, CREB1 / Fold change vs veh, CREB1 / RFU, DNAJC13 / Fold change vs veh, DNAJC13 / RFU, GNAQ / Fold change vs veh, GNAQ / RFU, CDK5R1 / Fold change vs veh, CDK5R1 / RFU, ZRANB3 / Fold change vs veh, ZRANB3 / RFU, CUL4A / Fold change vs veh, CUL4A / RFU, CCNY / Fold change vs veh, CCNY / RFU, UFL1 / Fold change vs veh, UFL1 / RFU, COG3 / Fold change vs veh, COG3 / RFU, DIAPH2 / Fold change vs veh, DIAPH2 / RFU, SKA2 / Fold change vs veh, SKA2 / RFU, AFF3 / Fold change vs veh, AFF3 / RFU, LMF1 / Fold change vs veh, LMF1 / RFU, IPO11 / Fold change vs veh, IPO11 / RFU, DFFB / Fold change vs veh, DFFB / RFU, FOXP1 / Fold change vs veh, FOXP1 / RFU, CARD8 / Fold change vs veh, CARD8 / RFU, STRN3 / Fold change vs veh, STRN3 / RFU, ADK / Fold change vs veh, ADK / RFU, RASSF2 / Fold change vs veh, RASSF2 / RFU, WIPF1 / Fold change vs veh, WIPF1 / RFU, LARP1B / Fold change vs veh, LARP1B / RFU, RASA1 / Fold change vs veh, RASA1 / RFU, RB1 / Fold change vs veh, RB1 / RFU, PPFIA1 / Fold change vs veh, PPFIA1 / RFU, MAT2A / Fold change vs veh, MAT2A / RFU, CCT5 / Fold change vs veh, CCT5 / RFU, WDR92 / Fold change vs veh, WDR92 / RFU, CUX1 / Fold change vs veh, CUX1 / RFU, TTC7A / Fold change vs veh, TTC7A / RFU, TMEM135 / Fold change vs veh, TMEM135 / RFU, DEPTOR / Fold change vs veh, DEPTOR / RFU, CPM / Fold change vs veh, CPM / RFU, DNAJB6 / Fold change vs veh, DNAJB6 / RFU, CACNA2D3 / Fold change vs veh, CACNA2D3 / RFU, DTX4 / Fold change vs veh, DTX4 / RFU, TFCP2 / Fold change vs veh, TFCP2 / RFU, GMCL1 /// GMCL1P1 / Fold change vs veh, GMCL1 /// GMCL1P1 / RFU, AEBP2 / Fold change vs veh, AEBP2 / RFU, SNHG1 /// SNORD22 /// SNORD25 /// SNORD26 /// SNORD27 /// SNORD28 /// SNORD29 /// SNORD31 / Fold change vs veh, SNHG1 /// SNORD22 /// SNORD25 /// SNORD26 /// SNORD27 /// SNORD28 /// SNORD29 /// SNORD31 / Fold change (Aza/veh), C12orf56 (ProbeSet 11735607_a_at) / Fold change (ACY-1035/veh), C12orf56 (ProbeSet 11735607_a_at) / Fold change (Aza/veh), FGFR1OP (ProbeSet 11751329_s_at) / Fold change (ACY-1035/veh), FGFR1OP (ProbeSet 11751329_s_at) / Fold change (Aza/veh), VPS36 (ProbeSet 11739960_a_at) / Fold change (ACY-1035/veh), VPS36 (ProbeSet 11739960_a_at) / RFU SYPL1 (11715823_x_at) / Fold change /veh SYPL1 (11715823_x_at) / RFU IGFBP7 (11715501_s_at) / Fold change /veh IGFBP7 (11715501_s_at) / RFU REEP3 (11722064_at) / Fold change /veh REEP3 (11722064_at) / RFU IGLL1 (11728026_x_at) / Fold change /veh IGLL1 (11728026_x_at): dose or concentration left out as unconfirmed
Conditions: MV-4-11 cells, 48 hours

Question: Which “Fold change /veh CNN1 (11734310_a_at)” value does the source give for `Nc1ncn([C@@H]2O[C@H](CO)[C@@H](O)[C@H]2O)c(=O)n1` [azacitidine] here?
Answer: 1.15
